Assay results reported in the supplement of paper PMC4932681.
Counter-ions that a name gives are not always drawn.

Experiments:
BT-474 [1] = experiment: drug sensitivity score (DSS) (DSS (dimensionless)); higher = more sensitive; extreme values may be limits of the assay; conditions: 72 h
How it was run: (§1)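 Breast cancer cell lines and their resistant derivatives were seeded into 384-well plates containing library drugs at five concentrations across a 10 000-fold range, with resistant lines kept in medium with 1 μM of the selecting drug. After 72 h at 37 °C, CellTiter-Glo viability was read on a PHERAstar and normalised to vehicle-only and positive controls. Logistic dose–response fits in the Breeze pipeline gave drug sensitivity score, relative IC50 (curve midpoint) and top-dose inhibition.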

T-47D [2] = experiment: as above; conditions: 72 h
How it was run: as §1

ZR-75-1 Tam2 [3] = experiment: as above; conditions: 4-OH-tamoxifen in medium 1 µM; 72 h
How it was run: as §1

BT-474 Tam1 [4] = experiment: as above; conditions: 4-OH-tamoxifen in medium 1 µM; 72 h
How it was run: as §1

MCF-7 [5] = experiment: as above; conditions: 72 h
How it was run: as §1

T-47D Tam1 [6] = experiment: as above; conditions: 4-OH-tamoxifen in medium 1 µM; 72 h
How it was run: as §1

T-47D Tam2 [7] = experiment: as above; conditions: 4-OH-tamoxifen in medium 1 µM; 72 h
How it was run: as §1

MCF-7 Tam1 [8] = experiment: as above; conditions: 4-OH-tamoxifen in medium 1 µM; 72 h
How it was run: as §1

ZR-75-1 Tam1 [9] = experiment: as above; conditions: 4-OH-tamoxifen in medium 1 µM; 72 h
How it was run: as §1

ZR-75-1 [10] = experiment: as above; conditions: 72 h
How it was run: as §1

BT-474 Tam2 [11] = experiment: as above; conditions: 4-OH-tamoxifen in medium 1 µM; 72 h
How it was run: as §1

BT-474 [12] = experiment: relative IC50 (midpoint of fitted logistic curve, plateau may be below 50% inhibition; CellTiter-Glo viability); higher = less potent; conditions: 72 h
How it was run: as §1

T-47D [13] = experiment: as above; conditions: 72 h
How it was run: as §1

ZR-75-1 Tam2 [14] = experiment: as above; conditions: 4-OH-tamoxifen in medium 1 µM; 72 h
How it was run: as §1

BT-474 Tam1 [15] = experiment: as above; conditions: 4-OH-tamoxifen in medium 1 µM; 72 h
How it was run: as §1

MCF-7 [16] = experiment: as above; conditions: 72 h
How it was run: as §1

T-47D Tam1 [17] = experiment: as above; conditions: 4-OH-tamoxifen in medium 1 µM; 72 h
How it was run: as §1

T-47D Tam2 [18] = experiment: as above; conditions: 4-OH-tamoxifen in medium 1 µM; 72 h
How it was run: as §1

MCF-7 Tam1 [19] = experiment: as above; conditions: 4-OH-tamoxifen in medium 1 µM; 72 h
How it was run: as §1

ZR-75-1 Tam1 [20] = experiment: as above; conditions: 4-OH-tamoxifen in medium 1 µM; 72 h
How it was run: as §1

ZR-75-1 [21] = experiment: as above; conditions: 72 h
How it was run: as §1

BT-474 Tam2 [22] = experiment: as above; conditions: 4-OH-tamoxifen in medium 1 µM; 72 h
How it was run: as §1

| SMILES | drug sensitivity score (BT-474 [1]; 4-OH-tamoxifen in medium 0 µM) | drug sensitivity score (BT-474 [1]; 4-OH-tamoxifen in medium 1 µM) | drug sensitivity score (T-47D [2]; 4-OH-tamoxifen in medium 0 µM) | drug sensitivity score (T-47D [2]; 4-OH-tamoxifen in medium 1 µM) | drug sensitivity score (ZR-75-1 Tam2 [3]) | drug sensitivity score (BT-474 Tam1 [4]) | drug sensitivity score (MCF-7 [5]; 4-OH-tamoxifen in medium 0 µM) | drug sensitivity score (MCF-7 [5]; 4-OH-tamoxifen in medium 1 µM) | drug sensitivity score (T-47D Tam1 [6]) | drug sensitivity score (T-47D Tam2 [7]) | drug sensitivity score (MCF-7 Tam1 [8]) | drug sensitivity score (ZR-75-1 Tam1 [9]) | drug sensitivity score (ZR-75-1 [10]; 4-OH-tamoxifen in medium 0 µM) | drug sensitivity score (ZR-75-1 [10]; 4-OH-tamoxifen in medium 1 µM) | drug sensitivity score (BT-474 Tam2 [11]) | relative IC50 (BT-474 [12]; 4-OH-tamoxifen in medium 0 µM) [µM] | relative IC50 (BT-474 [12]; 4-OH-tamoxifen in medium 1 µM) [µM] | relative IC50 (T-47D [13]; 4-OH-tamoxifen in medium 0 µM) [µM] | relative IC50 (T-47D [13]; 4-OH-tamoxifen in medium 1 µM) [µM] | relative IC50 (ZR-75-1 Tam2 [14]) [µM] | relative IC50 (BT-474 Tam1 [15]) [µM] | relative IC50 (MCF-7 [16]; 4-OH-tamoxifen in medium 0 µM) [µM] | relative IC50 (MCF-7 [16]; 4-OH-tamoxifen in medium 1 µM) [µM] | relative IC50 (T-47D Tam1 [17]) [µM] | relative IC50 (T-47D Tam2 [18]) [µM] | relative IC50 (MCF-7 Tam1 [19]) [µM] | relative IC50 (ZR-75-1 Tam1 [20]) [µM] | relative IC50 (ZR-75-1 [21]; 4-OH-tamoxifen in medium 0 µM) [µM] | relative IC50 (ZR-75-1 [21]; 4-OH-tamoxifen in medium 1 µM) [µM] | relative IC50 (BT-474 Tam2 [22]) [µM] |
| --- | --- | --- | --- | --- | --- | --- | --- | --- | --- | --- | --- | --- | --- | --- | --- | --- | --- | --- | --- | --- | --- | --- | --- | --- | --- | --- | --- | --- | --- | --- |
| CN1CCN(c2ccc3nc(-c4c(N)c5c(F)cccc5[nH]c4=O)[nH]c3c2)CC1 [Dovitinib (CHIR-258)] | 0 | 0 | 0 | 0 | 0 | 0 | 0 | 0 | 0 | 0 | 0 | 0 | 0 | 0 | 0 | > 10 | > 10 | > 10 | > 10 | > 10 | > 10 | > 10 | > 10 | > 10 | > 10 | > 10 | > 10 | > 10 | > 10 | > 10 |
| Cn1c(CCCC(=O)O)nc2cc(N(CCCl)CCCl)ccc21 [Bendamustine (hydrochloride hydrate)] | 0 | 0 | 0 | 0 | 0 | 0 | 0.159 | 0 | 0 | 0 | 0 | 0 | 0 | 0 | 0 | > 10 | > 10 | > 10 | > 10 | > 10 | > 10 |  | > 10 | > 10 | > 10 | > 10 | > 10 | > 10 | > 10 | > 10 |
| COc1ncc(-c2ccc3nccc(-c4ccnnc4)c3c2)cc1NS(=O)(=O)c1ccc(F)cc1F | 18.5 | 25.9 | 19.3 | 15.6 | 19.4 | 31 | 18.1 | 19.8 | 22.4 | 15.7 | 13.1 | 18.6 | 19.3 | 16.3 | 25 | 0.0151 | 0.00569 | 0.00587 | 0.0197 | 0.0107 | 0.00207 | 0.00597 | 0.00841 | 0.00399 | 0.0153 | 0.00912 | 0.0104 | 0.00756 | 0.0107 | 0.00703 |
| Cc1ccc(F)c(NC(=O)Nc2ccc(-c3cccc4[nH]nc(N)c34)cc2)c1 [Linifanib (ABT-869)] | 0 | 0 | 0 | 0 | 0 | 0 | 0 | 0 | 0 | 0 | 0 | 0 | 0 | 0 | 0 | > 1 | > 1 | > 1 | > 1 | > 1 | > 1 | > 1 | > 1 | > 1 | > 1 | > 1 | > 1 | > 1 | > 1 | > 1 |
| CN1CC[C@H](c2c(O)cc(O)c3c(=O)cc(-c4ccccc4Cl)oc23)[C@H](O)C1 [Alvocidib (Flavopiridol)] | 1.69 | 14.1 | 7.14 | 0 | 10.1 | 19.8 | 13.6 | 9.86 | 16.8 | 7.73 | 4.64 | 7.64 | 10.4 | 9.96 | 16.9 |  | 0.388 | 0.408 | > 10 | 0.355 | 0.217 | 0.187 | 0.515 | 0.174 | 0.184 | 0.316 | 0.477 | 0.251 | 0.246 | 0.363 |
| C[C@@H]1C=C2C(=O)O[C@@H]3CC[C@H](C1)[C@]23O [Galiellalactone] | 0 | 2.65 | 2.52 | 1.56 | 0 | 2.19 | 6.75 | 0.391 | 3.53 | 2.32 | 0 | 0 | 0 | 0 | 0 | > 50 | 17.3 | 20 | 30.1 | > 50 | 19.1 | 7 | > 50 | 8.36 | 13.8 | > 50 | > 50 | > 50 | > 50 | > 50 |
| COc1cccc2c1C(=O)c1c(O)c3c(c(O)c1C2=O)C[C@@](O)(C(C)=O)C[C@@H]3O[C@H]1C[C@H](N)[C@H](O)[C@H](C)O1 [Daunorubicin] | 2.33 | 4.51 | 7.41 | 3.69 | 6.6 | 3.18 | 6.15 | 7.3 | 6.95 | 4.19 | 1.34 | 5.81 | 6.15 | 5.38 | 1.15 | 0.385 | 0.375 | 0.134 | 0.35 | 0.15 | 0.398 | 0.208 | 0.189 | 0.133 | 0.282 | 0.341 | 0.164 | 0.138 | 0.124 | 0.393 |
| Nc1ncn([C@H]2C[C@H](O)[C@@H](CO)O2)c(=O)n1 [Decitabine (Dacogen)] | 0 | 0 | 0 | 0 | 0 | 0 | 1.25 | 0 | 0 | 0 | 0 | 0 | 0 | 0 | 0 | > 10 | > 10 | > 10 | > 10 | > 10 | > 10 |  | > 10 | > 10 | > 10 | > 10 | > 10 | > 10 | > 10 | > 10 |
| C[C@]12CC[C@@H]3c4ccc(OC(=O)N(CCCl)CCCl)cc4CC[C@H]3[C@@H]1CC[C@@H]2O [Estramustine] | 0 | 0 | 0 | 0 | 0 | 0 | 0 | 0 | 0 | 0 | 0 | 0 | 0 | 0 | 0 | > 990 | > 990 | > 990 | > 990 | > 990 | > 990 | > 990 | > 990 | > 990 | > 990 | > 990 | > 990 | > 990 | > 990 | > 990 |
| O=C(O)CCCc1ccc(N(CCCl)CCCl)cc1 [Chlorambucil] | 0 | 0 | 0 | 0 | 0 | 0 | 0 | 0 | 0 | 0 | 0 | 0 | 0 | 0 | 0 | > 10 | > 10 | > 10 | > 10 | > 10 | > 10 | > 10 | > 10 | > 10 | > 10 | > 10 | > 10 | > 10 | > 10 | > 10 |
| CS(=O)(=O)OCCCCOS(C)(=O)=O [Busulfan] | 0 | 0 | 0 | 0 | 0 | 0 | 0 | 0.0038 | 0 | 0 | 0 | 0 | 0 | 0 | 0 | > 100 |  | > 100 | > 100 | > 100 | > 100 | > 100 |  | > 100 | > 100 | > 100 | > 100 | > 100 | > 100 | > 100 |
| CNCc1ccc(-c2[nH]c3cc(F)cc4c3c2CCNC4=O)cc1 | 0 | 0 | 0 | 0 | 0 | 0 | 0 | 0 | 0 | 0 | 0 | 0 | 0 | 0 | 0 | > 10 | > 10 | > 10 | > 10 | > 10 | > 10 | > 10 | > 10 | > 10 | > 10 | > 10 | > 10 | > 10 | > 10 | > 10 |
| Cc1ccc(C(=O)N(CCCN)[C@@H](c2oc3cc(Cl)ccc3c(=O)c2Cc2ccccc2)C(C)C)cc1 | 0 | 0 | 0 | 0 | 0 | 0 | 0 | 0.514 | 0 | 0 | 0 | 0 | 0 | 0 | 0 | > 0.1 | > 0.1 | > 0.1 | > 0.1 | > 0.1 | > 0.1 | > 0.1 |  | > 0.1 | > 0.1 | > 0.1 | > 0.1 | > 0.1 | > 0.1 | > 0.1 |
| C[C@@H](Oc1cc(-c2cnn(C3CCNCC3)c2)cnc1N)c1c(Cl)ccc(F)c1Cl [Crizotinib] | 0 | 0 | 0 | 0 | 0 | 0 | 0 | 0 | 0 | 0 | 0 | 0 | 0 | 0 | 0 | > 1 | > 1 | > 1 | > 1 | > 1 | > 1 | > 1 | > 1 | > 1 | > 1 | > 1 | > 1 | > 1 | > 1 | > 1 |
